Data published in PMC4072508, “Genome-Wide Prediction and Validation of Peptides That Bind Human Prosurvival Bcl-2 Proteins” (PLoS Computational Biology, 2014).
Like-named read-outs stand apart in the source and are kept apart here. No end group written: not given here.

What was measured:
Bcl-2 = molecular target: T1, Bcl-2 (Homo sapiens, UniProt P10415, DEL53-91); assay: Fluorescence polarization direct binding
T1 construct: myc- Bcl-2 FP; made in house
Procedure: (§1) Peptides were purified by reverse-phase HPLC using a C18 column and a linear water/acetonitrile gradient. We re-analyzed the purified peptide by mass spectrometry if there was not a single well-defined peak in HPLC chromatogram.
(§2) Fluorescence polarization (FP) assays were done at 25°C in assay buffer (20 mM NaPO4, 50 mM NaCl, 1 mM EDTA, 0.001% Triton X (v/v), pH 7.8). […] For all FP experiments, the total well volume was 120 µl. […] Anisotropy was measured using a Spectramax M5 plate reader from Molecular Devices.
(§3) Direct binding curves were fit using Pylab/Scipy/Optimize to a single-site binding model utilized previously.
(§4) ^1Best-fit KD values determined by combining all replicate titration curves and fitting to a direct binding model (see Methods). […] Values with an X followed by a number indicate the highest concentration (the number, in nM) for which signal was measured yet no binding was detected.

Bcl-w = molecular target: T2, Bcl-w (Homo sapiens, UniProt Q92843, Q133R); assay: Fluorescence polarization direct binding
T2 construct: myc-Bcl-w SPOT array & FP; made in house
T2 sequence (Q92843 with tags, fused parts or gaps Q133R): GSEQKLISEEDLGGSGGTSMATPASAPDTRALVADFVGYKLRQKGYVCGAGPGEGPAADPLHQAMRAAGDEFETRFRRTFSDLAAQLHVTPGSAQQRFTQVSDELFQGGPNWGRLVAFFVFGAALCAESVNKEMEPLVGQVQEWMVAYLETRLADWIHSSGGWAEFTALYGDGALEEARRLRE
Procedure: as §1, §2, §3, §4

Bcl-xL [1] = molecular target: T3, Bcl-xL (Homo sapiens, UniProt Q07817); assay: Fluorescence polarization direct binding
T3 construct: myc-Bcl-xL SPOT array & FP; made in house
Procedure: as §1, §2, §3, §4

Bfl-1 = molecular target: T4, Bfl-1 (Homo sapiens, UniProt Q16548); assay: Fluorescence polarization direct binding
T4 construct: myc- Bfl-1 SPOT array & FP; made in house
T4 sequence (Q16548 with tags, fused parts or gaps): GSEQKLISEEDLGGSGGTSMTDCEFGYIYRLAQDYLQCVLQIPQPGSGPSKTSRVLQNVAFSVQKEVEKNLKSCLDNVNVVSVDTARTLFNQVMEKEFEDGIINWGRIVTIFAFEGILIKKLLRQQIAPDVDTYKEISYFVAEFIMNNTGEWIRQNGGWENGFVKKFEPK
Procedure: as §1, §2, §3, §4

Mcl-1 [2] = molecular target: T5, Mcl-1 (Homo sapiens, UniProt Q07820); assay: Fluorescence polarization direct binding
T5 construct: myc-Mcl-1 SPOT array & FP; made in house
Procedure: as §1, §2, §3, §4

Bcl-xL [3] = molecular target: T3, Bcl-xL; details: S1 Bim variants, specific binding measured using yeast display; ref Dutta et al. (2010); cited from earlier work
Mcl-1 [4] = molecular target: T5, Mcl-1; details: read-out: Binder class, Mcl-1; S1 Bim variants, specific binding measured using yeast display; ref Dutta et al. (2010); cited from earlier work
Source text: Negative control mutatio ...

[5] = FP direct binding, 10 nM FAM-labeled peptide, receptor titrated, 25°C, pH 7.8, fit of all replicate titrations, X+number in a cell = highest concentration (nM) measured with no binding detected, given here as >, SPNS1 fit to raw fluorescence, read-out: Best-fit KD, Bcl-2
[6] = benchmark classification of peptides newly characterized in this study, read-out: Binder class, Bcl-2
[7] = FP direct binding, 10 nM FAM-labeled peptide, receptor titrated, 25°C, pH 7.8, fit of all replicate titrations, X+number in a cell = highest concentration (nM) measured with no binding detected, given here as >, SPNS1 fit to raw fluorescence, read-out: Best-fit KD, Bcl-w
[8] = benchmark classification of peptides newly characterized in this study, read-out: Binder class, Bcl-w
[9] = FP direct binding, 10 nM FAM-labeled peptide, receptor titrated, 25°C, pH 7.8, fit of all replicate titrations, X+number in a cell = highest concentration (nM) measured with no binding detected, given here as >, SPNS1 fit to raw fluorescence, read-out: Best-fit KD, Bcl-xL
[10] = benchmark classification of peptides newly characterized in this study, read-out: Binder class, Bcl-xL
[11] = FP direct binding, 10 nM FAM-labeled peptide, receptor titrated, 25°C, pH 7.8, fit of all replicate titrations, X+number in a cell = highest concentration (nM) measured with no binding detected, given here as >, SPNS1 fit to raw fluorescence, read-out: Best-fit KD, Bfl-1
[12] = benchmark classification of peptides newly characterized in this study, read-out: Binder class, Bfl-1
[13] = Binder class, Mcl-1, benchmark classification of peptides newly characterized in this study
[14] = FP direct binding, 10 nM FAM-labeled peptide, receptor titrated, 25°C, pH 7.8, fit of all replicate titrations, X+number in a cell = highest concentration (nM) measured with no binding detected, given here as >, SPNS1 fit to raw fluorescence

T5 sequence (Q07820 with tags, fused parts or gaps): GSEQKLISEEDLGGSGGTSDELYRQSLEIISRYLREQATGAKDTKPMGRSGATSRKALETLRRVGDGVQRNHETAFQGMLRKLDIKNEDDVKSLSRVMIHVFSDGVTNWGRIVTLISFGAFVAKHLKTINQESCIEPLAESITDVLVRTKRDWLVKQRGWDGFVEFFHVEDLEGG
T3 sequence (Q07817 with tags, fused parts or gaps): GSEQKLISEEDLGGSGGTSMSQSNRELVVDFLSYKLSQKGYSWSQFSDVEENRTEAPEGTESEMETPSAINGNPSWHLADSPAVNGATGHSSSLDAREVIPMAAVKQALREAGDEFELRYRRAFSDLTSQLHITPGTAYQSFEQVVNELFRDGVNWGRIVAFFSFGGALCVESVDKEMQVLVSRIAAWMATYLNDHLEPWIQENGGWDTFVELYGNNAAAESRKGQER
T1 sequence (P10415 with tags, fused parts or gaps DEL53-91): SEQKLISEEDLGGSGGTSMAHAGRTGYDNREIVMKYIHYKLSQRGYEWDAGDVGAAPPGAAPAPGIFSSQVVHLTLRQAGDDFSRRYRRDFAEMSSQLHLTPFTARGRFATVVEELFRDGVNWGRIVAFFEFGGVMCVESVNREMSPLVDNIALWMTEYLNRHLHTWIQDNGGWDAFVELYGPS

Row | Substance | Kd (Bcl-2; [5]) [nM] | Kd (Bcl-2; [6]) [nM] | Kd (Bcl-w; [7]) [nM] | Kd (Bcl-w; [8]) [nM] | Kd (Bcl-xL [1]; [9]) [nM] | Kd (Bcl-xL [1]; [10]) [nM] | Kd (Bfl-1; [11]) [nM] | Kd (Bfl-1; [12]) [nM] | Kd (Mcl-1 [2]; [13]) [nM] | Kd (Mcl-1 [2]; [14]) [nM] | further results
1 | AWGKFGGAFARYADEMKEIQERQ-NH2 [PURB] | 34 | < 1000 | > 1800 | > 10000 | > 100000 | > 10000 | > 4670 | > 10000 | > 10000 | > 4000 | 
2 | PEIWVAQEINRVGDEVNAYYARR |  |  |  |  |  |  |  |  |  |  | Binder class (Kd bin) (Bcl-xL [3]): > 10000 nM; Kd (Mcl-1 [4]): < 1000 nM
3 | AIRPRAVELRHLADDFINGNKKK-NH2 [MCF2L2] | 60 | < 1000 | 1120 | 1000 to 10000 | 292 | < 1000 | > 3370 | > 10000 | > 10000 | > 4000 | 
4 | PILENPEILRKTADDFLNRIALT-NH2 [CCH] | 7130 | 1000 to 10000 | 1920 | 1000 to 10000 | > 5720 | > 10000 | > 9610 | > 10000 | > 10000 | > 4000 | 
5 | ATRRLSGFLRTLADRLEGTKELL-NH2 [MINA] | 266 | < 1000 | 1230 | 1000 to 10000 | 1010 | 1000 to 10000 | 1130 | 1000 to 10000 | > 10000 | > 10000 | 
6 | RSMVFARHLREVGDEFRSRHLNS-NH2 [POFUT2] | 98 | < 1000 | 98 | < 1000 | 39 | < 1000 | > 2280 | > 10000 | > 10000 | > 10000 | Best-fit KD, Bcl-2 (Bcl-2; [14]): bound tightly; Best-fit KD, Bcl-w (Bcl-w; [14]): bound tightly; Best-fit KD, Bcl-xL (Bcl-xL [1]; [14]): bound tightly
7 | ELQELARKLQELADASENLLTEN-NH2 [TXNDC11] | 86 | < 1000 | 249 | < 1000 | 1490 | 1000 to 10000 | > 10000 | > 10000 | 1000 to 10000 | 2380 | 
8 | LRLFLAQRLRWLADSAPASRATA-NH2 [NBEAL2] | 16 | < 1000 | 29 | < 1000 | 10 | < 1000 | 3270 | 1000 to 10000 | 1000 to 10000 | 3810 | Best-fit KD, Bcl-2 (Bcl-2; [14]): bound tightly; Best-fit KD, Bcl-w (Bcl-w; [14]): bound tightly; Best-fit KD, Bcl-xL (Bcl-xL [1]; [14]): bound tightly
9 | RLVQQSKALKELADELQERAQRP-NH2 [TRIM58] |  |  |  |  |  |  |  |  | > 10000 |  | Kd (Bcl-2): 975 nM; Kd (Bcl-2; Binder class, Bcl-2, benchmark classification of peptides newly characterized in this study): < 1000 nM; Kd (Bcl-w): 361 nM; Kd (Bcl-w; Binder class, Bcl-w, benchmark classification of peptides newly characterized in this study): > 10000 nM; Kd (Bcl-xL [1]): 4550 nM; Kd (Bcl-xL [1]; Binder class, Bcl-xL, benchmark classification of peptides newly characterized in this study): 1000 to 10000 nM; Kd (Bfl-1): > 4670 nM; Kd (Bfl-1; Binder class, Bfl-1, benchmark classification of peptides newly characterized in this study): > 10000 nM; Kd (Mcl-1 [2]): > 6070 nM
10 | FTGNNTAVQELKRVSEQFTATFRRKA-NH2 [TUBB4Q] | 1410 | 1000 to 10000 | 2490 | 1000 to 10000 | 2050 | 1000 to 10000 | > 4670 | > 10000 | < 1000 | 1460 | 
11 | RYRHGAPAEQLRHLADMLTTKWATLQ-NH2 [PLEKHH1] | 1500 | < 1000 | 1400 | > 10000 | 650 | < 1000 | > 5680 | > 10000 | > 10000 | 977 | 

Second part, led by results:

Row | Kd (Bcl-2; [5]) [nM] | Kd (Bcl-2; [6]) [nM] | Kd (Bcl-w; [7]) [nM] | Kd (Bcl-w; [8]) [nM] | Kd (Bcl-xL [1]; [9]) [nM] | Kd (Bcl-xL [1]; [10]) [nM] | Kd (Bfl-1; [11]) [nM] | Kd (Bfl-1; [12]) [nM] | Kd (Mcl-1 [2]; [13]) [nM] | Kd (Mcl-1 [2]; [14]) [nM] | Substance | further results
12 | 3290 | 1000 to 10000 | 5380 | 1000 to 10000 | > 6900 | > 10000 | > 3290 | > 10000 | > 10000 | > 4000 | LMARPAVALHFQSIADGFKEAVRYVL-NH2 [SOS2] | 
13 | > 100000 | 1000 to 10000 | 5870 | 1000 to 10000 | > 4000 | > 10000 | > 4670 | > 10000 | > 10000 | > 5030 | LSDGLPVHLANIADELTQKKKMF-NH2 [AGBL2] | 
14 | 130 | < 1000 | 85 | < 1000 | 103 | < 1000 | > 3370 | > 10000 | > 10000 | > 10000 | KKMTLSEIYRWIADNFPYYKNAG-NH2 [FOXJ2] | Best-fit KD, Bcl-2 (Bcl-2; [14]): bound tightly; Best-fit KD, Bcl-w (Bcl-w; [14]): bound tightly; Best-fit KD, Bcl-xL (Bcl-xL [1]; [14]): bound tightly
15 | 2990 | 1000 to 10000 | 3610 | < 1000 | 2540 | 1000 to 10000 | 4680 | 1000 to 10000 | > 10000 | 912 | SKFVILSAHKLVFIGDTLSRQAKAAD-NH2 [BCAR1] | 
